Results as given in patent US8158638B2, “Pyrazolopyrimidine derivative” (Daiichi Sankyo Company, Limited, priority 2006, dated 2012).
Where a name gives a salt, the structure may show the parent alone. Read-outs that look alike come from different tables or passages of the source.

Legend:
[1] = target: T1, recombinant yeast Hsp90 protein (rHsp90) (Saccharomyces cerevisiae, UniProt P02829); experiment: Hsp90 ATPase assay; assay type: biochemical; details: rHsp90 100 μg/mL, ATP 100 μM, 37° C., two hours, BIOMOL GREEN; read-out: IC50 value (concentration for 50% inhibition of ATP activity)
T1 construct: made in house; host or cells: Escherichia coli
T1 sequence (P02829 whole entry): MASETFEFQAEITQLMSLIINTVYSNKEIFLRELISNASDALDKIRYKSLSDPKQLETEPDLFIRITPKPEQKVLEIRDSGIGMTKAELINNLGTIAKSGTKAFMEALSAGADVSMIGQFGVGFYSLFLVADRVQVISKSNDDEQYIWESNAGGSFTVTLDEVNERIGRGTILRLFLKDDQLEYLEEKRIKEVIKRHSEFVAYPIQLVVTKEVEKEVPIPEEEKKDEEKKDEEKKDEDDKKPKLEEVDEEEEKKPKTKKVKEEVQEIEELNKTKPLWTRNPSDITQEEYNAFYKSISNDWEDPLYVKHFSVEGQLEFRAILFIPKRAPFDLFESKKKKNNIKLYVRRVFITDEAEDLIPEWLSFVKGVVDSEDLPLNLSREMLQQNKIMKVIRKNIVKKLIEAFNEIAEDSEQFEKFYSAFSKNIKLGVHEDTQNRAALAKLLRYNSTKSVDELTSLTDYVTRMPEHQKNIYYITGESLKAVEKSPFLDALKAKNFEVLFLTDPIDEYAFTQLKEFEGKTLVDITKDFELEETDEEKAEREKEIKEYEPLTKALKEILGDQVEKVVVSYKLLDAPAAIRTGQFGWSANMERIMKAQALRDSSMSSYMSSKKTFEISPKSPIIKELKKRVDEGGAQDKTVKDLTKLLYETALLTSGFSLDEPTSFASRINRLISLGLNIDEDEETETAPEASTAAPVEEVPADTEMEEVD
Experimental: An Hsp90 ATPase assay was performed using a recombinant yeast Hsp90 protein (hereinafter called rHsp90). Yeast Hsp90 DNA was cloned from a yeast genomic DNA library according to a conventional method. The cloned yeast Hsp90 DNA was incorporated into a plasmid for expression in Escherichia coli, and the plasmid was expressed in Escherichia coli to obtain rHsp90.
The test compound was dissolved in DMSO to 10 mM. The dissolved solution was diluted with DMSO to eight concentrations ranging in three-fold dilutions from 4 mM. Each diluted solution was further 10-fold diluted with an assay buffer (100 mM Tris, pH 7.4, 20 mM KCl, 6 mM MgCl2) (concentration of each test compound solution: 400 μM, 133 μM, 44.4 μM, 14.8 μM, 4.94 μM, 1.65 μM, 0.549 μM, 0.183 μM; DMSO concentration: 10%).
rHsp90 was dissolved in a TE buffer (20 mM Tris, pH 7.4, 1 mM EDTA) to a concentration of 2.531 mg/mL. The dissolved solution was diluted with assay buffer to 125 μg/mL and dispensed to a 96-well assay plate at 40 μL per well (final concentration: 100 μg/mL).
The test compound solution was dispensed at 5 μL per well, and then the solutions in the respective wells were mixed using a plate mixer. 100 mM ATP (Sigma, Catalog No. A-7699) was diluted with assay buffer to 1 mM and dispensed at 5 μL per well (final concentration: 100 μM). The solutions in the respective wells were mixed using a plate mixer, and then the assay plate was allowed to stand in an incubator set at 37° C. for two hours.
BIOMOL GREEN Reagent (BIOMOL, Catalog No. AK-111) was dispensed at 100 μL per well, and the reaction was terminated. The solutions in the respective wells were mixed by pipetting (three times), and then 34% sodium citrate was dispensed at 10 μL per well. The solutions in the respective wells were mixed by pipetting (three times), and then the assay plate was left to stand at room temperature for 10 minutes. The absorbance at 630 nm of each well was measured with a microplate reader.
The ratio of the absorbance of the test compound-added group to the absorbance of the test compound-free group (T/C value) was determined by the following calculation formula, based on the assumption that the absorbance of the well to which the test compound and rHsp90 were added was A, the absorbance of the well to which only rHsp90 was added was B, and the absorbance of the well to which neither the test compound nor rHsp90 was added was C. T/C=(A−C)/(B−C)
Further, the concentration for 50% inhibition of ATP activity (IC50 value) was calculated using GraphPad Prism 4 (GraphPad Software, Inc.).

[2] = system: human breast cancer cell line SK-BR-3; experiment: Cell growth inhibition assay (MTT), SK-BR-3; assay type: cell-based; details: Homo sapiens, read-out: GI50 value (50% growth inhibitory concentration)
Experimental: (§1) A cell growth inhibition assay was performed using two types of cells (human breast cancer cell line SK-BR-3 and human lung cancer cell line NCI-H460).
(§2) Cells of each type were suspended in a medium and seeded into a 96-well multi-well plate at 500 cells/150 μl/well. The test compound was dissolved in DMSO, and this was diluted with medium to prepare a sample solution (DMSO concentration: 0.5% or less). On the day following the seeding, 50 μL of DMSO-containing medium to which the test compound was not added (hereinafter called DMSO diluted solution; DMSO concentration: 0.5% or less) or the sample solution was added to the cells. An MTT assay was performed immediately after and 72 hours after adding the sample solution or the DMSO diluted solution to the cells. The MTT assay was performed as follows.
(§3) 5 mg/mL of an MTT (3-(4,5-dimethylthiazol-2-yl)-2,5-diphenyltetrazolium bromide) solution was added at 20 μL per well. Thereafter, the plate was incubated at 37° C. in 5% CO2 for four hours. The plate was centrifuged at 1200 rpm for five minutes, and then the culture supernatant was removed by suction using a dispenser. DMSO was added at 150 μL per well, and the generated formazan was dissolved. The plate was stirred using a plate mixer to uniformly color the respective wells. The absorbance of each well was measured using a plate reader at an OD of 540 nm with a reference of 660 nm.
(§4) T/C (%) for each concentration was determined by the following calculation formula and a dose-response curve was drawn to calculate the 50% growth inhibitory concentration (GI50 value), based on the assumption that the OD value measured immediately after adding the sample solution was S, the OD value measured 72 hours after adding the sample solution was T, and the OD value measured 72 hours after adding the DMSO diluted solution was C. T/C(%)=(T−S)/(C−S)×100

[3] = system: human lung cancer cell line NCI-H460; experiment: Cell growth inhibition assay (MTT), NCI-H460; assay type: cell-based; details: Homo sapiens, read-out: GI50 value (50% growth inhibitory concentration)
Experimental: as §1, §2, §3, §4

| IC50 [1] [nM] | GI50 ([2]; SK-BR-3, MTT assay, 72 hours) [nM] | GI50 ([3]; NCI-H460, MTT assay, 72 hours) [nM] | SMILES | GI50 ([2]; SK-BR-3, 72 h) [nM] | GI50 ([3]; NCI-H460, 72 h) [nM] |
| --- | --- | --- | --- | --- | --- |
| 890 | – | – | CCc1c(C)cnc(Cn2nc3c4c(nc(N)nc42)SCC3)c1C [Example 176, 2-[(4-Ethyl-3,5-dimethylpyridin-2-yl)methyl]-7,8-dihydro-2H-6-thia-1,2,3,5-tetraazaacenaphthylen-4-amine] | – | – |
| 3400 | – | – | Nc1nc2c3c(nn(Cc4nc5cccc(Cl)c5s4)c3n1)CCS2 [Example 174, 2-[(7-Chloro-1,3-benzothiazol-2-yl)methyl]-7,8-dihydro-2H-6-thia-1,2,3,5-tetraazaacenaphthylen-4-amine] | – | – |
| 1800 | 17 | 37 | COc1c(C)cnc(Cn2nc3c4c(nc(N)nc42)SC(C(=O)Nc2ncc(C)s2)C3)c1C (centres unmarked) [Example 194, 4-Amino-2-[(4-methoxy-3,5-dimethylpyridin-2-yl)methyl]-N-(5-methyl-1,3-thiazol-2-yl)-7,8-dihydro-2H-6-thia-1,2,3,5-tetraazaacenaphthylene-7-carboxamide] | – | – |
| 2000 | 6800 | 16000 | Cn1c(=O)c(Cn2nc3c4c(nc(N)nc42)SCC3)cc2ccccc21 [Example 165, 3-[(4-Amino-7,8-dihydro-2H-6-thia-1,2,3,5-tetraazaacenaphthylen-2-yl)methyl]-1-methylquinolin-2(1H)-one] | – | – |
| 1100 | 37 | 89 | CNC(=O)CC1=Cc2nn(Cc3ncc(C)c(OC)c3C)c3nc(N)nc(c23)SC1 [Example 116, 2-{4-Amino-2-[(4-methoxy-3,5-dimethylpyridin-2-yl)methyl]-2,7-dihydro-6-thia-1,2,3,5-tetraazabenzo[cd]azulen-8-yl}-N-methylacetamide] | – | – |
| 1200 | – | – | Cc1cnc(Cn2nc3c4c(nc(N)nc42)SCC3)c(C)c1Cl [Example 175, 2-[(4-Chloro-3,5-dimethylpyridin-2-yl)methyl]-7,8-dihydro-2H-6-thia-1,2,3,5-tetraazaacenaphthylen-4-amine] | – | – |
| 740 | 77 | 194 | COc1c(C)cnc(Cn2nc3c4c(nc(N)nc42)SCC(CC(N)=O)=C3)c1C [Example 115, 2-{4-Amino-2-[(4-methoxy-3,5-dimethylpyridin-2-yl)methyl]-2,7-dihydro-6-thia-1,2,3,5-tetraazabenzo[cd]azulen-8-yl}acetamide] | – | – |
| 630 | 38 | 71 | COc1c(C)cnc(Cn2nc3c4c(nc(N)nc42)SCC(CC(=O)N2CCC2)=C3)c1C [Example 123, 8-(2-Azetidin-1-yl-2-oxoethyl)-2-[(4-methoxy-3,5-dimethylpyridin-2-yl)methyl]-2,7-dihydro-6-thia-1,2,3,5-tetraazabenzo[cd]azulen-4-amine] | – | – |
| 2400 | 58 | 150 | COc1c(C)cnc(Cn2nc3c4c(nc(N)nc42)SCC(NC2CC2)C3)c1C (centres unmarked) [Example 51, N^8-Cyclopropyl-2-[(4-methoxy-3,5-dimethylpyridin-2-yl)methyl]-2,7,8,9-tetrahydro-6-thia-1,2,3,5-tetraazabenzo[cd]azulene-4,8-diamine hydrochloride] | – | – |
| 3300 | 307 | 411 | CNC(=O)OC1CSc2nc(N)nc3c2c(nn3Cc2ncc(C)c(OC)c2C)C1 (centres unmarked) [Example 37, 4-Amino-2-[(4-methoxy-3,5-dimethylpyridin-2-yl)methyl]-2,7,8,9-tetrahydro-6-thia-1,2,3,5-tetraazabenzo[cd]azulen-8-yl methylcarbamate] | – | – |
| 1400 | 91 | 253 | COc1c(C)cnc(Cn2nc3c4c(nc(N)nc42)SCC(NC(C)=O)C3)c1C (centres unmarked) [Example 43, N-{4-Amino-2-[(4-methoxy-3,5-dimethylpyridin-2-yl)methyl]-2,7,8,9-tetrahydro-6-thia-1,2,3,5-tetraazabenzo[cd]azulen-8-yl}acetamide] | – | – |
| 1500 | 20 | 57 | COc1c(C)cnc(Cn2nc3c4c(nc(N)nc42)SC(C(=O)Nc2nccs2)C3)c1C (centres unmarked) [Example 191, 4-Amino-2-[(4-methoxy-3,5-dimethylpyridin-2-yl)methyl]-N-(1,3-thiazol-2-yl)-7,8-dihydro-2H-6-thia-1,2,3,5-tetraazaacenaphthylene-7-carboxamide] | – | – |
| 760 | – | – | COc1c(C)cnc(Cn2nc3c4c(nc(N)nc42)SCC(CO)=C3)c1C [Example 214, {4-Amino-2-[(4-methoxy-3,5-dimethylpyridin-2-yl)methyl]-2,7-dihydro-6-thia-1,2,3,5-tetraazabenzo[cd]azulen-8-yl}methanol] | – | – |
| 1500 | – | – | Nc1nc2c3c(nn(Cc4cc5c(cn4)OCCO5)c3n1)CCS2 [Example 172, 2-(2,3-Dihydro[1,4]dioxino[2,3-c]pyridin-7-ylmethyl)-7,8-dihydro-2H-6-thia-1,2,3,5-tetraazaacenaphthylen-4-amine] | – | – |

| SMILES | IC50 [1] [nM] | GI50 ([2]; SK-BR-3, MTT assay, 72 hours) [nM] | GI50 ([3]; NCI-H460, MTT assay, 72 hours) [nM] | GI50 ([2]; SK-BR-3, 72 h) [nM] | GI50 ([3]; NCI-H460, 72 h) [nM] |
| --- | --- | --- | --- | --- | --- |
| COc1c(C)cnc(Cn2nc3c4c(nc(N)nc42)SCC(CCO)=C3)c1C [Example 111, 2-{4-Amino-2-[(4-methoxy-3,5-dimethylpyridin-2-yl)methyl]-2,7-dihydro-6-thia-1,2,3,5-tetraazabenzo[cd]azulen-8-yl}ethanol] | 810 | – | – | 49 | 94 |
| COc1c(C)cnc(Cn2nc3c4c(nc(N)nc42)SC=C3)c1C [Example 151, 2-[(4-Methoxy-3,5-dimethylpyridin-2-yl)methyl]-2H-6-thia-1,2,3,5-tetraazaacenaphthylen-4-amine] | 890 | – | – | 48 | 110 |
| COc1c(C)cnc(Cn2nc3c4c(nc(N)nc42)SCC(CCN2CCCCC2)=C3)c1C [Example 145, 2-[(4-Methoxy-3,5-dimethylpyridin-2-yl)methyl]-8-(2-piperidin-1-ylethyl)-2,7-dihydro-6-thia-1,2,3,5-tetraazabenzo[cd]azulen-4-amine] | 890 | – | – | 19 | 45 |
| CCNC(=O)CC1=Cc2nn(Cc3ncc(C)c(OC)c3C)c3nc(N)nc(c23)SC1 [Example 118, 2-{4-Amino-2-[(4-methoxy-3,5-dimethylpyridin-2-yl)methyl]-2,7-dihydro-6-thia-1,2,3,5-tetraazabenzo[cd]azulen-8-yl}-N-ethylacetamide] | 610 | – | – | 33 | 510 |
| COc1c(C)cnc(Cn2nc3c4c(nc(N)nc42)SCC(CCN2CCCC2)=C3)c1C [Example 141, 2-[(4-Methoxy-3,5-dimethylpyridin-2-yl)methyl]-8-(2-pyrrolidin-1-ylethyl)-2,7-dihydro-6-thia-1,2,3,5-tetraazabenzo[cd]azulen-4-amine] | 1000 | – | – | 41 | 260 |
